# Measurements published in US11413278B2, “Compounds and methods for promoting stress resistance” (priority 2015, dated 2022).
# “Also recorded” adds a separate entry of the source. Like-named read-outs stand apart in the source and are kept apart here.
# What was measured:
# Type in all cases: cell-based, human
# [1] = tested on: NRF2; assay: in vitro
# [2] = tested on: mTOR; assay: mTOR inhibition (RPS6 phosphorylation status), In-Cell Western
# Outline: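 Read-out is In-Cell Western near-infrared imaging of phospho-RPS6 (Ser-235/236) against total RPS6, using overnight 4° C primary staining and DyLight 680/800 secondaries. Compounds were given to WI-38 cells for 24 hrs at three doses: 5, 10 and 20 μM.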
# [3] = tested on: FOXO3; assay: qPCR analysis of FOXO3-regulated genes; settings: for fold induction at 10 µM: Homo sapiens
# Outline: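 FOXO3 target-gene expression quantified by qPCR normalised to B2M, PPIA and GAPDH, in WI-38 cells after 24 h exposure to 10 μM compound. Some runs used cells first transfected 36 h with 10 nM FOXO3 or NRF2 siRNA and replated ~24 h before dosing.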
# [4] = tested on: WI-38 cells; assay: Propidium iodide (PI) cell-death imaging upon H2O2 stress; settings: for cytotoxicity at 10 µM: Homo sapiens, WI-38
smiles,measurement,setting,value
CCc1ccccc1NC(=O)c1ccc([N+](=O)[O-])o1 [Gr-1C],J = NRF2-dependency for H2O2-resistance,[1]; score,0
same,J = NRF2-dependency for H2O2-resistance,[1]; summary score,0
same,G = mTOR down-regulation,[2]; 2-point score,0
same,G = mTOR down-regulation,[2]; summary score,0
same,"Induction of at least two of five FOXO3-regulated genes (SOD2, GADD45A, CAT, DDB1, TXNIP)","[3]; 10 μM, 24 hrs, WI-38",significant induction; also recorded: induce FOXO3-regulated genes
same,E = Potential FOXO3 Activation,[3]; 2-point score,0
same,fold induction at 10 µM,"[3]; 24 h, Assay 10(m), at 10 uM, qPCR, read-out: Induction of FOXO3-regulated genes: CAT normalized fold-change",1.41
same,fold induction at 10 µM,"[3]; 24 h, Assay 10(m), at 10 uM, qPCR, read-out: Induction of FOXO3-regulated genes: DDB1 normalized fold-change",1.14
same,fold induction at 10 µM,"[3]; 24 h, Assay 10(m), at 10 uM, qPCR, read-out: Induction of FOXO3-regulated genes: GADD45A normalized fold-change",0.6
same,fold induction at 10 µM,"[3]; 24 h, Assay 10(m), at 10 uM, qPCR, read-out: Induction of FOXO3-regulated genes: SESN1 normalized fold-change",1.59
same,fold induction at 10 µM,"[3]; WI-38, 24 h, read-out: SESN1 expression",> 1.5
same,fold induction at 10 µM,"[3]; 10 μM, 24 hrs, WI-38 cells, qPCR, normalized to B2M, n = 4, read-out: CAT expression, normalized fold change (FOXO3-regulated gene)",1.44
same,fold induction at 10 µM,"[3]; WI-38 cells, 10 μM, 24 hrs, n=4, qPCR normalized by B2M, read-out: DDB1 Normalized fold change",1.4
same,fold induction at 10 µM,"[3]; WI-38 cells, 10 μM, 24 hrs, n=4, qPCR normalized by B2M, read-out: GADD45A Normalized fold change",0.727
same,fold induction at 10 µM,"[3]; WI-38 cells, 10 μM, 24 hrs, n=4, qPCR normalized by B2M, read-out: SESN1 Normalized fold change",1.9
same,fold induction at 10 µM,"[3]; fold change, qPCR, WI-38 cells, 10 μM, 24 hrs, read-out: Summary of effects on FOXO3-regulated genes: CAT",1.44
same,fold induction at 10 µM,"[3]; qPCR, WI-38 cells, 10 μM, n=4, 24 hrs, normalized by B2M, read-out: CAT Normalized fold change",1.44
same,fold induction at 10 µM,"[3]; qPCR, WI-38 cells, 10 μM, n=4, 24 hrs, normalized by B2M, read-out: SOD2 Normalized fold change",1.33
same,fold induction at 10 µM,"[3]; qPCR, WI-38 cells, 10 μM, n=4, 24 hrs, normalized by B2M, read-out: TXNIP Normalized fold change",1.23
same,K = Sestrin induction,[3]; score,0
same,E = Potential FOXO3 Activation,[3]; summary score,0
same,"Assay 7: H2O2-resistant, at 10 uM, validated by propidium iodide (PI) cell-death imaging","[4]; 10 uM, w/H2O2, 3 hrs/4 hrs/5 hrs, YES/NO",YES
same,cytotoxicity at 10 µM,"[4]; H2O2 3 hrs, 10 uM, n = 6, negative control 5.44% ± 0.79%, read-out: Percentage of propidium iodide-positive dead cells (under H2O2 stress treatment), 3 hrs",2.49%
same,cytotoxicity at 10 µM,"[4]; H2O2 4 hrs, 10 uM, n = 6, negative control 16.81% ± 1.42%, read-out: Percentage of propidium iodide-positive dead cells (under H2O2 stress treatment), 4 hrs",3.1%
same,cytotoxicity at 10 µM,"[4]; H2O2 5 hrs, 10 uM, n = 6, negative control 22.50% ± 1.53%, read-out: Percentage of propidium iodide-positive dead cells (under H2O2 stress treatment), 5 hrs",4.05%
same,cytotoxicity at 10 µM,"[4]; pre-treatment at 10 uM, 3.5 hours of H2O2, DMSO control 27.4% ± 6.5%, */**/*** = reduced by one/two/three standard deviations, read-out: Percentage of propidium iodide-positive dead cells (under H2O2 stress treatment), at 10 uM",7.8%
